One assay relates to Del19/T790M/C797S EGFR. The experiment in a line: EGFR degradation HTRF assay in H1975-clone #28 (DTC) cells. The class given is cell-based. To be noted: H1975 # 28 DTC (Del19/T790M/C797S), 16h treatment; for DC50: HTRF; for Dmax (%): maximum percentage of degradation. In a few lines:
(§1)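 Engineered H1975 lines (exogenous mutant EGFR, endogenous copies knocked out, single clones sequence-verified); 16 h compound, 37 °C/5% CO2, 0.2% DMSO; top 10 uM, 5-fold, 8 pts; lysis 1 h RT, HTRF antibodies overnight RT; 4-parameter logistic fit → DC50.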

The next assay addresses T1, L858R/T790M/C797S EGFR (Homo sapiens, UniProt P00533, C797S/L858R/T790M).
T1 construct: expressed in transfected cells; host or cells: H1975 clone #25 (lentiviral over-expression, endogenous EGFR knocked out by sgRNA)
The experiment in a line: EGFR degradation HTRF assay in H1975-clone #25 (LTC) cells. The class given is cell-based. To be noted: 16h treatment; for DC50: H1975 # 25-LTC (L858R/T790M/C797S), HTRF; for Dmax: NCI-H1975, H1975 # 25-LTC (L858R/T790M/C797S), maximum percentage of degradation. In a few lines:
as §1

T1 sequence (P00533 25-1210 T790M/C797S/L858R): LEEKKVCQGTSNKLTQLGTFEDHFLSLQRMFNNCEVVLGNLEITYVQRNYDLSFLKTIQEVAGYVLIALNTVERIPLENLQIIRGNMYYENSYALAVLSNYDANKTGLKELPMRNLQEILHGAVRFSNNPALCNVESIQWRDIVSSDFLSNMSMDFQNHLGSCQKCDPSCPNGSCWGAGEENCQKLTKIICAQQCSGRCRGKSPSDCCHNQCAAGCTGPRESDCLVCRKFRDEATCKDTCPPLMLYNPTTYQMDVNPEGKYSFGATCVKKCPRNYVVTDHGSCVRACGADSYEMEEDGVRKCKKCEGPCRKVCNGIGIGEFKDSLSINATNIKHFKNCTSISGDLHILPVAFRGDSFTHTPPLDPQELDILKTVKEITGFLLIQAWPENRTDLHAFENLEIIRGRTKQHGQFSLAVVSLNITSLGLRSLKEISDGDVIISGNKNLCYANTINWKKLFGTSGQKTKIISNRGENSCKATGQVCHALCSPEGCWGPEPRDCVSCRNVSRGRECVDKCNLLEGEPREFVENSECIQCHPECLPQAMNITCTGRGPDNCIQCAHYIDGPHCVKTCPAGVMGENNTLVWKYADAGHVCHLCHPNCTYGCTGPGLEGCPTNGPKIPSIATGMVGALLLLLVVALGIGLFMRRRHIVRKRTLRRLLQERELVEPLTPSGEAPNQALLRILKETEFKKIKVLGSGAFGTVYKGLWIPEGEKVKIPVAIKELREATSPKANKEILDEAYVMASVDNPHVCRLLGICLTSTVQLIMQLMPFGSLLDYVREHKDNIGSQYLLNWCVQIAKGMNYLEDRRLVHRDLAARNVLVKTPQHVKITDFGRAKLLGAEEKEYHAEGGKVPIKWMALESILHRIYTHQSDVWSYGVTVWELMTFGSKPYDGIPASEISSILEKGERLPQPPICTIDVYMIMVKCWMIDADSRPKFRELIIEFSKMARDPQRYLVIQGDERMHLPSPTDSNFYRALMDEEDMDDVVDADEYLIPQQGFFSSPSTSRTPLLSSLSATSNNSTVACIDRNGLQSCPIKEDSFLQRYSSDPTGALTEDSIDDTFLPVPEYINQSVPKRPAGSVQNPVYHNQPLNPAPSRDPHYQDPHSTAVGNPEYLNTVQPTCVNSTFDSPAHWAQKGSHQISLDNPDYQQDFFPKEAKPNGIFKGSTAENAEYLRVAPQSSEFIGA

In the case of `Cc1cc2cc(n1)-c1cnn(C)c1OCC[C@H]1C[C@@H]1CN1/C(=N/C2=O)Nc2ccc(N3CCC(N4CCN(c5cc(F)c([C@H]6CCC(=O)NC6=O)c(F)c5)CC4=O)CC3)cc21` [Example 458, (R)-3-(4-(4-(1-((7'S,7^2R,E)-1^1,2^6-dimethyl-3-oxo-5^2,5^3-dihydro-1^1H,5^1H-10-oxa-4-aza-5(2,1)-benzo[d]imidazola-2(2,4)-pyridina-1(4,5)-pyrazola-7(1,2)-cyclopropanacyclodecaphane-5^6-yl)piperidin-4-yl)-3-oxopiperazin-1-yl)-2,6-difluorophenyl)piperidine-2,6-dione], in the assay with Del19/T790M/C797S EGFR, the DC50 was 0.985 nM and the “Dmax (%)” value is reported as 92.47%. At L858R/T790M/C797S EGFR, this compound showed a 50% degradation concentration (DC50) of 0.809 nM and a maximal degradation (Dmax) of 92.7%.

Turning to `Cc1cc2cc(n1)-c1cnn(C)c1OCCC[C@@H](C)CN1/C(=N/C2=O)Nc2ccc(C(=O)N(C)C[C@H]3CCCN(CCc4cc(F)c([C@H]5CCC(=O)NC5=O)c(F)c4)C3)cc21` [Example 276, (R,E)-N—(((S)-1-(4-((R)-2,6-dioxopiperidin-3-yl)-3,5-difluorophenethyl)piperidin-3-yl)methyl)-N,1^1, 2^6,7-tetramethyl-3-oxo-5^2,5^3-dihydro-1^1H,5^1H-11-oxa-4-aza-5(2,1)-benzo[d]imidazola-2(2,4)-pyridina-1(4,5)-pyrazolacycloundecaphane-5^6-carboxamide], in the assay on Del19/T790M/C797S EGFR, it took 1.74 nM to reach half-maximal degradation (DC50) and the “Dmax (%)” value was 71.19%. On L858R/T790M/C797S EGFR, this compound gave a half-maximal degradation concentration (DC50) of 0.592 nM and a Dmax of 88%.

Regarding `Cc1cc2cc(n1)-c1cnn(C)c1OCCC[C@@H](C)CN1/C(=N/C2=O)Nc2ccc(C(=O)N(C)C3CCN(CCc4cccc5c4C(C)(C)C(=O)N5[C@H]4CCC(=O)NC4=O)CC3)cc21` [Example 379, (R,E)-N-(1-(2-(1-((S)-2,6-dioxopiperidin-3-yl)-3,3-dimethyl-2-oxoindolin-4-yl)ethyl)piperidin-4-yl)-N,1^1,2^6,7-tetramethyl-3-oxo-5^2,5^3-dihydro-1^1H,5^1H-11-oxa-4-aza-5(2,1)-benzo[d]imidazola-2(2,4)-pyridina-1(4,5)-pyrazolacycloundecaphane-5^6-carboxamide], in the assay with Del19/T790M/C797S EGFR, the 50% degradation concentration (DC50) came out at 0.682 nM and the “Dmax (%)” value turned out to be 67.89%. On L858R/T790M/C797S EGFR, the DC50 worked out at 0.503 nM and the Dmax is 80.9%.

As for `Cc1cc2cc(n1)-c1cnn(C)c1OCCC[C@@H](C)CN1/C(=N/C2=O)Nc2ccc(N3CCN(CCc4cc(F)c([C@H]5CCC(=O)NC5=O)c(F)c4)CC3=O)cc21` [Example 366, (R)-3-(2,6-difluoro-4-(2-(3-oxo-4-((R,E)-1^1,2^6,7-trimethyl-3-oxo-5^2,5^3-dihydro-1^1H,5^1H-11-oxa-4-aza-5(2,1)-benzo[d]imidazola-2(2,4)-pyridina-1(4,5)-pyrazolacycloundecaphane-5^6-yl)piperazin-1-yl)ethyl)phenyl)piperidine-2,6-dione], in the assay on Del19/T790M/C797S EGFR, half-maximal degradation (DC50) was put at 0.539 nM and the “Dmax (%)” value came to 84.74%. In addition, on L858R/T790M/C797S EGFR, it took 0.372 nM to reach half-maximal degradation (DC50) and the maximal degradation (Dmax) came out at 91.8%.

As for `Cc1cc2cc(n1)-c1cnn(C)c1OCC[C@H]1C[C@@H]1CN1/C(=N/C2=O)Nc2ccc(N3CCN([C@H]4C[C@H](Nc5cc(F)c([C@H]6CCC(=O)NC6=O)c(F)c5)C4)CC3)cc21` (single isomer, unassigned) [Example 443], in the assay with Del19/T790M/C797S EGFR, it took 0.633 nM to reach half-maximal degradation (DC50) and the “Dmax (%)” value is 78.26%. Moreover, on L858R/T790M/C797S EGFR, it took 1.25 nM to reach half-maximal degradation (DC50) and the maximal degradation (Dmax) worked out at 86.6%.

`Cc1cc2cc(n1)-c1cnn(C)c1OCCC[C@@H](C)CN1/C(=N/C2=O)Nc2ccc(C(=O)NC3CN(CCc4cc(F)c([C@H]5CCC(=O)NC5=O)c(F)c4)C3)cc21` [Example 307, (R,E)-N-(1-(4-((R)-2,6-dioxopiperidin-3-yl)-3,5-difluorophenethyl)azetidin-3-yl)-1^1,2^6,7-trimethyl-3-oxo-5^2,5^3-dihydro-1^1H,5^1H-11-oxa-4-aza-5(2,1)-benzo[d]imidazola-2(2,4)-pyridina-1(4,5)-pyrazola cycloundecaphane-5^6-carboxamide]: in the assay on Del19/T790M/C797S EGFR, the DC50 was 1.28 nM and the “Dmax (%)” value is 52.25%. On L858R/T790M/C797S EGFR, this compound had a half-maximal degradation concentration (DC50) of 1.78 nM and a Dmax of 84.8%.

As to `Cc1cc2cc(n1)-c1cnn(C)c1OCCC[C@@H](C)CN1/C(=N/C2=O)Nc2ccc(N3CCN(C[C@H]4CCN(c5cc(F)c([C@H]6CCC(=O)NC6=O)c(F)c5)C4)CC3=O)cc21` [Example 464, (R)-3-(2,6-difluoro-4-((R)-3-((3-oxo-4-((R,E)-1^1,2^6,7-trimethyl-3-oxo-5^2,5^3-dihydro-1^1H,5^1H-11-oxa-4-aza-5(2,1)-benzo[d]imidazola-2(2,4)-pyridina-1(4,5)-pyrazolacycloundecaphane-5^6-yl)piperazin-1-yl)methyl)pyrrolidin-1-yl)phenyl)piperidine-2,6-dione], in the assay on Del19/T790M/C797S EGFR, the 50% degradation concentration (DC50) amounted to 0.678 nM and the “Dmax (%)” value is 82.71%. At L858R/T790M/C797S EGFR, this compound registered a 50% degradation concentration (DC50) of 0.646 nM and a Dmax of 85%.

On to `Cc1cc2cc(n1)-c1cnn(C)c1OCCC[C@@H](C)CN1/C(=N/C2=O)Nc2ccc(CN3CC4(C3)CN(C(=O)[C@@H]3CCN(c5cc(F)c([C@H]6CCC(=O)NC6=O)c(F)c5)C3)C4)cc21` [Example 78, (R)-3-(2,6-difluoro-4-((R)-3-(6-(((R,E)-1^1,2^6,7-trimethyl-3-oxo-5^2,5^3-dihydro-1^1H,5^1H-11-oxa-4-aza-5(2,1)-benzo[d]imidazola-2(2,4)-pyridina-1(4,5)-pyrazolacycloundecaphane-5^6-yl)methyl)-2,6-diazaspiro[3.3]heptane-2-carbonyl)pyrrolidin-1-yl)phenyl)piperidine-2,6-dione], for which, in the assay on Del19/T790M/C797S EGFR, the DC50 was 0.7 nM and the “Dmax (%)” value worked out at 82.6%. Moreover, at L858R/T790M/C797S EGFR, the DC50 was 0.5 nM and the Dmax is 90.2%.

With `Cc1cc2cc(n1)-c1cnn(C)c1OCCC[C@@H](C)CN1/C(=N/C2=O)Nc2ccc(C(=O)N[C@@H]3CCN(CCc4cc(F)c([C@H]5CCC(=O)NC5=O)c(F)c4)C[C@@H]3F)cc21` [Example 246, (R,E)-N-((3S,4R)-1-(4-((R)-2,6-dioxopiperidin-3-yl)-3,5-difluorophenethyl)-3-fluoropiperidin-4-yl)-1^1,2^6,7-trimethyl-3-oxo-5^2,5^3-dihydro-1^1H,5^1H-11-oxa-4-aza-5(2,1)-benzo[d]imidazola-2(2,4)-pyridina-1(4,5)-pyrazolacycloundecaphane-5^6-carboxamide], in the assay with Del19/T790M/C797S EGFR, the DC50 amounted to 0.602 nM and the “Dmax (%)” value was 85.73%. At L858R/T790M/C797S EGFR, this compound gave a 50% degradation concentration (DC50) of 0.613 nM and a Dmax of 93.8%.

`Cc1cc2cc(n1)-c1cnn(C)c1OCCC[C@@H](C)CN1/C(=N/C2=O)Nc2ccc(N3CCN([C@H]4CCN(c5ccc([C@H]6CCC(=O)NC6=O)nc5C)C[C@@H]4F)CC3)cc21` [Example 440, (R)-3-(5-((3S,4S)-3-fluoro-4-(4-((R,L)-1^1,2^6,7-trimethyl-3-oxo-5^2,5′-dihydro-1^1H,5^1H-11-oxa-4-aza-5(2,1)-benzo[d]imidazola-2(2,4)-pyridina-1(4,5)-pyrazolacycloundecaphane-5^6-yl)piperazin-1-yl)piperidin-1-yl)-6-methylpyridin-2-yl)piperidine-2,6-dione]: in the assay on Del19/T790M/C797S EGFR, the 50% degradation concentration (DC50) is 0.884 nM and the “Dmax (%)” value is 85.39%. At L858R/T790M/C797S EGFR, this compound showed a DC50 of 0.936 nM and a maximal degradation (Dmax) of 93.5%.

`Cc1cc2cc(n1)-c1cnn(C)c1OCCC[C@@H](C)CN1/C(=N/C2=O)Nc2ccc(N3CCC(C(=O)N4CCN(c5cc(F)c([C@H]6CCC(=O)NC6=O)c(F)c5)CC4)CC3)cc21` [Example 333, (R)-3-(2,6-difluoro-4-(4-(1-((R,E)-1^1,2^6,7-trimethyl-3-oxo-5^2,5^3-dihydro-1^1H,5^1H-11-oxa-4-aza-5(2,1)-benzo[d]imidazola-2(2,4)-pyridina-1(4,5)-pyrazolacycloundecaphane-5^6-yl)piperidine-4-carbonyl)piperazin-1-yl)phenyl)piperidine-2,6-dione]: in the assay with Del19/T790M/C797S EGFR, the DC50 came out at 0.684 nM and the “Dmax (%)” value amounted to 75.17%. On L858R/T790M/C797S EGFR, this compound came in with a DC50 of 0.687 nM and a Dmax of 86.1%.

For `Cc1cc2cc(n1)-c1cnn(C)c1OCCC[C@@H](C)CN1/C(=N/C2=O)Nc2ccc(N3CCN(CCN(C)c4ccc5c(c4)CN([C@H]4CCC(=O)NC4=O)C5=O)CC3)cc21` [Example 405, (S)-3-(5-(methyl(2-(4-((R,E)-1^1,2^6,7-trimethyl-3-oxo-5^2,5^3-dihydro-1^1H,5^1H-11-oxa-4-aza-5(2,1)-benzo[d]imidazola-2(2,4)-pyridina-1(4,5)-pyrazolacycloundecaphane-5^6-yl)piperazin-1-yl)ethyl)amino)-1-oxoisoindolin-2-yl)piperidine-2,6-dione], in the assay with Del19/T790M/C797S EGFR, the DC50 amounted to 1.26 nM and the “Dmax (%)” value was determined as 78.67%. Moreover, on L858R/T790M/C797S EGFR, half-maximal degradation (DC50) was put at 0.677 nM and the maximal degradation (Dmax) worked out at 80.5%.

With `Cc1cc2cc(n1)-c1cnn(C)c1OCCC[C@@H](C)CN1/C(=N/C2=O)Nc2ccc(N3CCN(C4CCN(c5cc(F)c([C@H]6CCC(=O)NC6=O)c(F)c5)CC4)[C@H](CO)C3)cc21` [Example 447, (R)-3-(2,6-difluoro-4-(4-((S)-2-(hydroxymethyl)-4-((R,E)-1^1,2^6,7-trimethyl-3-oxo-5^2,5^3-dihydro-1^1H,5^1H-11-oxa-4-aza-5(2,1)-benzo[d]imidazola-2(2,4)-pyridina-1(4,5)-pyrazolacycloundecaphane-5^6-yl)piperazin-1-yl)piperidin-1-yl)phenyl)piperidine-2,6-dione], in the assay with Del19/T790M/C797S EGFR, the DC50 stood at 0.645 nM and the “Dmax (%)” value is on record as 76.31%. On L858R/T790M/C797S EGFR, this compound returned a half-maximal degradation concentration (DC50) of 0.652 nM and a maximal degradation (Dmax) of 84.2%.

Usually DC50 stands for the midpoint of the concentration-degradation curve. Low readings indicate degradation at low concentration, high ones degradation only at high concentration. A word on the Dmax: it is the greatest extent of degradation seen. A high value points to a fuller loss of target.
